In PubChem BioAssay (NCI):
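Cells were grown in 96-well plates and exposed to each compound for 48 hours at five concentrations; endpoints were interpolated linearly between bracketing concentrations, or set to the highest concentration if not reached. TGI marks complete inhibition of growth.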

Tests used:
Assay in all cases: growth of human tumour cells (NCI), 48 h
[1] = system: OVCAR-3 ovarian
[2] = system: KM20L2 colon
[3] = system: SW-620 colon
[4] = system: SK-MEL-28 melanoma
[5] = system: M19-MEL melanoma
[6] = system: XF 498 CNS
[7] = system: OVCAR-8 ovarian
[8] = system: TK-10 renal
[9] = system: HT29 colon
[10] = system: IGROV1 ovarian
[11] = system: COLO 205 colon
[12] = system: CCRF-CEM leukemia
[13] = system: SNB-75 CNS
[14] = system: 786-0 renal
[15] = system: SF-268 CNS
[16] = system: SK-MEL-2 melanoma
[17] = system: SF-295 CNS
[18] = system: A549 NSCLC
[19] = system: NCI-H23 lung
[20] = system: LXFL 529 NSCLC
[21] = system: M14 melanoma
[22] = system: DMS 114 small cell lung
[23] = system: HCT-116 colon
[24] = system: EKVX NSCLC
[25] = system: SNB-78 CNS
[26] = system: HOP-92 NSCLC
[27] = system: A498 renal
[28] = system: MALME-3M melanoma
[29] = system: NCI-H460 lung
[30] = system: RXF 393 renal
[31] = system: HL-60(TB) leukemia
[32] = system: UO-31 renal
[33] = system: K-562 leukemia
[34] = system: ACHN renal
[35] = system: KM12 colon
[36] = system: OVCAR-5 ovarian
[37] = system: RPMI-8226 leukemia
[38] = system: SNB-19 CNS
[39] = system: UACC-62 melanoma
[40] = system: UACC-257 melanoma
[41] = system: SK-MEL-5 melanoma
[42] = system: U251 CNS
[43] = system: HOP-62 NSCLC
[44] = system: SK-OV-3 ovarian
[45] = system: SN12C renal
[46] = system: OVCAR-4 ovarian
[47] = system: SF-539 CNS
[48] = system: DLD-1 colon
[49] = system: HCT-15 colon
[50] = system: DMS 273 small cell lung
[51] = system: CAKI-1 renal
[52] = system: NCI-H522 lung
[53] = system: RXF-631 renal
[54] = system: NCI-H226 lung
[55] = system: LOX IMVI melanoma
[56] = system: MOLT-4 leukemia
[57] = system: SR leukemia
[58] = system: HCC-2998 colon
[59] = system: HOP-18 NSCLC

Measured: TGI

CCc1cccc(C)c1N1C(=O)C(=O)C(c2nc3ccccc3o2)/C(=N/NC(=S)NN)C1=O (centres undefined)
> 100 µM: [1] | [2] | [3] | [4] | [5] | [6] | [7] | [8] | [9] | [10] | [11] | [12] | [13] | [14] | [15] | [16] | [17] | [18] | [19] | [20] | [21] | [22] | [23] | [24] | [25] | [26] | [27] | [28] | [29] | [30] | [31] | [32] | [33] | [34] | [35] | [36] | [37] | [38] | [39] | [40] | [41] | [42] | [43] | [44] | [45] | [46] | [47] | [48] | [49] | [50] | [51] | [52] | [53] | [54] | [55]

CC12CC/C(=N/NC(N)=O)C3C1CCCC32
> 100 µM: [1] | [2] | [3] | [4] | [5] | [7] | [8] | [9] | [10] | [11] | [12] | [13] | [56] | [14] | [15] | [16] | [57] | [17] | [18] | [19] | [20] | [21] | [58] | [22] | [23] | [26] | [27] | [28] | [29] | [31] | [32] | [33] | [34] | [35] | [37] | [38] | [39] | [40] | [41] | [42] | [43] | [44] | [59] | [45] | [46] | [47] | [48] | [49] | [50] | [51] | [52] | [53] | [54] | [55]

CC(C)COC(=O)c1ccc(N=Cc2ccc(C=Nc3ccc(C(=O)OCC(C)C)cc3)cc2)cc1
> 100 µM: [1] | [2] | [3] | [4] | [5] | [6] | [7] | [8] | [9] | [10] | [11] | [13] | [56] | [14] | [15] | [16] | [57] | [17] | [18] | [19] | [20] | [21] | [58] | [25] | [26] | [28] | [29] | [31] | [32] | [33] | [34] | [35] | [36] | [37] | [38] | [39] | [40] | [42] | [43] | [44] | [45] | [46] | [47] | [48] | [49] | [50] | [51] | [52] | [53] | [54] | [55]

O=C(CC(=O)N1N=C(n2ccc3ccccc32)CC1c1ccccc1)Nc1ccc(Cl)cc1 (centres undefined)
> 100 µM: [1] | [2] | [3] | [4] | [5] | [7] | [8] | [9] | [10] | [11] | [12] | [13] | [56] | [14] | [15] | [16] | [17] | [18] | [19] | [20] | [21] | [58] | [22] | [23] | [24] | [25] | [26] | [27] | [28] | [29] | [30] | [31] | [32] | [33] | [34] | [35] | [36] | [37] | [38] | [39] | [40] | [42] | [43] | [44] | [59] | [45] | [46] | [47] | [48] | [49] | [50] | [52] | [53] | [55]
